System: not listed separately
Test: in vitro
Conditions: human, hela-ace2 cells, 50.0

| Structure (SMILES) | CC50 at 24 h |
| --- | --- |
| C[C@H](C(=O)O)[C@@H](NC(=O)c1ncnc2[nH]ccc12)c1ccc(Br)cc1 [ASAP-0014722] | > 20 µM |

System: not listed separately
Test: Hepatic microsomal stability, MLM
Format: in vitro ADME
Conditions: In vitro mouse liver microsomal stability

| Structure (SMILES) | clint | perc_remaining | t_half |
| --- | --- | --- | --- |
| C[C@H](C(=O)O)[C@@H](NC(=O)c1ncnc2[nH]ccc12)c1ccc(Br)cc1 [ASAP-0014722] | 4.0 µL/min/mg | 111.226% | 379.672 min |

Same assay, conditions: In vitro mouse liver microsomal stability, no cofactor

| Structure (SMILES) | perc_remaining_no_cofactor |
| --- | --- |
| C[C@H](C(=O)O)[C@@H](NC(=O)c1ncnc2[nH]ccc12)c1ccc(Br)cc1 [ASAP-0014722] | 100.245% |

Target: T1, 5-HT3 (h) (Homo sapiens, UniProt P46098)
T1 construct: purchased Eurofins Cerep (SafetyScreen44), recognised from the panel format
T1 sequence (P46098 24-478): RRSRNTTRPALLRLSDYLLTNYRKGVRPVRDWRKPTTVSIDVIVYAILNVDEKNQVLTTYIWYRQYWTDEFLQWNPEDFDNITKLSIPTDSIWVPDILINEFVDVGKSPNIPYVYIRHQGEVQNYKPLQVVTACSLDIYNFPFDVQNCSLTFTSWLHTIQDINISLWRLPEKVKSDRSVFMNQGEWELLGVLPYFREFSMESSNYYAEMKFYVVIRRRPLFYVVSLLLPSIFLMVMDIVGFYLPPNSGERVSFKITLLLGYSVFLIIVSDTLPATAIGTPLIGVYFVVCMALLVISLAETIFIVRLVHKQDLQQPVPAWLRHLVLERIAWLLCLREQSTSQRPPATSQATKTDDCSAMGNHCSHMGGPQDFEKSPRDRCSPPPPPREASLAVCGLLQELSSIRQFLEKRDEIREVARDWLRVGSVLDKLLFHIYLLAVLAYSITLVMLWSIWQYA
Test: In vitro CEREP profiling, 5-HT3 (h) (antagonist radioligand)
Format: binding
Conditions: test compound concentration 10 uM
Source text: (§1) Supplement media-1.zip/Safety_Panel_Profile.csv, table | column: perc_inhibition

| Structure (SMILES) | perc_inhibition (% inhibition of the binding of a ligand specific for each target) |
| --- | --- |
| C[C@H](C(=O)O)[C@@H](NC(=O)c1ncnc2[nH]ccc12)c1ccc(Br)cc1 [ASAP-0014722] | 2% |

Target: T2, N neuronal alpha4beta2 (h) (Homo sapiens, UniProt P17787+P43681)
T2 construct: purchased Eurofins Cerep (SafetyScreen44), recognised from the panel format
T2 sequence (P43681 29-627 limits assumed): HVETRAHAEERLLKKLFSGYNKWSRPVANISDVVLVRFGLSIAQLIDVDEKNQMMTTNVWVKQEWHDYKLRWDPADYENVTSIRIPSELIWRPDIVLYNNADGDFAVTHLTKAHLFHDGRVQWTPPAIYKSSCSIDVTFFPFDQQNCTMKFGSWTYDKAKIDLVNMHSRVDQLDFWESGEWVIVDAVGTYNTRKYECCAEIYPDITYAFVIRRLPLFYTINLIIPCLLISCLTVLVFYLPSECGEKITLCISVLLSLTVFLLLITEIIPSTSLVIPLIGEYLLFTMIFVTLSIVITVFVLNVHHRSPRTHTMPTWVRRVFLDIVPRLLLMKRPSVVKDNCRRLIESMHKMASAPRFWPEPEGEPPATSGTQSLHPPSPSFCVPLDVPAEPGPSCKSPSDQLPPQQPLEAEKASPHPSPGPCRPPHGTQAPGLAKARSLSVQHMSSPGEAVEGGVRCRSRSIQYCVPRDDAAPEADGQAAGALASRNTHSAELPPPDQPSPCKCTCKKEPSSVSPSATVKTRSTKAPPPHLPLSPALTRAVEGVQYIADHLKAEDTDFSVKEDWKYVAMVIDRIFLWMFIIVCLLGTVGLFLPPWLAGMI
T2 sequence (P17787 26-502): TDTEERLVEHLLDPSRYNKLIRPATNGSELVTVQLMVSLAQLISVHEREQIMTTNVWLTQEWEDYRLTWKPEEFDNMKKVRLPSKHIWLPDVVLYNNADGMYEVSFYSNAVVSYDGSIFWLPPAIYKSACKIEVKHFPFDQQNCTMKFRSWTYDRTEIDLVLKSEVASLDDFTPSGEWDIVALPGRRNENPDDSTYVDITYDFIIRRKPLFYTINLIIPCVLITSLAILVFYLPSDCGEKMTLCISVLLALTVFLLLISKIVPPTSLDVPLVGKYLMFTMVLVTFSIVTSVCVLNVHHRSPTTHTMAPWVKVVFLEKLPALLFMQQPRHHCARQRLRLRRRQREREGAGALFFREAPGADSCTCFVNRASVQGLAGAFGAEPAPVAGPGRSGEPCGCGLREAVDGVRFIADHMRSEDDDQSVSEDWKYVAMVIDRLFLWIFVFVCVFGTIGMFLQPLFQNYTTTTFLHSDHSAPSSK
Test: In vitro CEREP profiling, N neuronal alpha4beta2 (h) (agonist radioligand)
Format: binding
Conditions: test compound concentration 10 uM
Source text: as §1

| Structure (SMILES) | perc_inhibition (% inhibition of the binding of a ligand specific for each target) |
| --- | --- |
| C[C@H](C(=O)O)[C@@H](NC(=O)c1ncnc2[nH]ccc12)c1ccc(Br)cc1 [ASAP-0014722] | 0% |

System: not listed separately
Test: In vitro rat SD liver microsomal stability
Format: in vitro ADME
Conditions: not given
Source text: Supplement media-1.zip/Hepatic_Microsomal_Stability.csv, table | column: clint; t_half

| Structure (SMILES) | clint | t_half |
| --- | --- | --- |
| C[C@H](C(=O)O)[C@@H](NC(=O)c1ncnc2[nH]ccc12)c1ccc(Br)cc1 [ASAP-0014722] | < 5.0 µL/min/mg | > 139.0 min |

Target: T3, norepinephrine transporter (h) (Homo sapiens, UniProt P23975)
T3 construct: purchased Eurofins Cerep (SafetyScreen44), recognised from the panel format
T3 sequence (P23975 whole entry): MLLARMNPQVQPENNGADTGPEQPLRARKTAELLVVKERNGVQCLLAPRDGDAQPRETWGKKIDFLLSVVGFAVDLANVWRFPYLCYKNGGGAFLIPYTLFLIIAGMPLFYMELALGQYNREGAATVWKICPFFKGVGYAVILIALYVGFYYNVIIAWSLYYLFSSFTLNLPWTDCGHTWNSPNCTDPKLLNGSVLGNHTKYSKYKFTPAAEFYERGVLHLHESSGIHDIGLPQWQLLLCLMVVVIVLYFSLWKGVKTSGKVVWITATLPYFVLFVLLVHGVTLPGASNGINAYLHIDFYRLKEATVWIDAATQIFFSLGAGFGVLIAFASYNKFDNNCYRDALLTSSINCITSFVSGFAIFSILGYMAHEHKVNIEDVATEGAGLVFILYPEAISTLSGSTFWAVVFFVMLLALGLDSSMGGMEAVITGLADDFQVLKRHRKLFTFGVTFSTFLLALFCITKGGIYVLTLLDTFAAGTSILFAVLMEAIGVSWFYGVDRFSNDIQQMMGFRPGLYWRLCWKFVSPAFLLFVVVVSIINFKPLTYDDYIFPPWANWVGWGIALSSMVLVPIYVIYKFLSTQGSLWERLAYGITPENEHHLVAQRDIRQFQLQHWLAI
Test: In vitro CEREP profiling, norepinephrine transporter (h) (antagonist radioligand)
Format: binding
Conditions: test compound concentration 10 uM
Source text: as §1

| Structure (SMILES) | perc_inhibition (% inhibition of the binding of a ligand specific for each target) |
| --- | --- |
| C[C@H](C(=O)O)[C@@H](NC(=O)c1ncnc2[nH]ccc12)c1ccc(Br)cc1 [ASAP-0014722] | -6% |

System: not listed separately
Test: In vitro human hepatocyte stability
Format: in vitro ADME
Conditions: not given
Source text: Supplement media-1.zip/Hepatocyte_Stability.csv, table | column: clint; t_half

| Structure (SMILES) | clint | t_half |
| --- | --- | --- |
| C[C@H](C(=O)O)[C@@H](NC(=O)c1ncnc2[nH]ccc12)c1ccc(Br)cc1 [ASAP-0014722] | < 3.0 uL/min/1E6 cells | > 231.0 min |

Target: T4, delta (DOP) (h) (Homo sapiens, UniProt P41143)
T4 construct: purchased Eurofins Cerep (SafetyScreen44), recognised from the panel format
T4 sequence (P41143 whole entry): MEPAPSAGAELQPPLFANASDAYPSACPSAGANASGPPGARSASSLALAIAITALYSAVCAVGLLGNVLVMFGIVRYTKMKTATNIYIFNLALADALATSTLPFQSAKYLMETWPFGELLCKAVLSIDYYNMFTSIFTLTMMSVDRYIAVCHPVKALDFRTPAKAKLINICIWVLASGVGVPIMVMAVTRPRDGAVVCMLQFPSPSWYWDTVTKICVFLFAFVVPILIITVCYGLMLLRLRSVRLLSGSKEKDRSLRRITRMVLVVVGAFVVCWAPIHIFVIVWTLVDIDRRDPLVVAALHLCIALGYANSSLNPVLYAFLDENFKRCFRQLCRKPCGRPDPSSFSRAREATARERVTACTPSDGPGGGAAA
Test: In vitro CEREP profiling, delta (DOP) (h) (agonist radioligand)
Format: binding
Conditions: test compound concentration 10 uM
Source text: as §1

| Structure (SMILES) | perc_inhibition (% inhibition of the binding of a ligand specific for each target) |
| --- | --- |
| C[C@H](C(=O)O)[C@@H](NC(=O)c1ncnc2[nH]ccc12)c1ccc(Br)cc1 [ASAP-0014722] | -24% |

Target: T5, CB2 (h) (Homo sapiens, UniProt P34972)
T5 construct: purchased Eurofins Cerep (SafetyScreen44), recognised from the panel format
T5 sequence (P34972 whole entry): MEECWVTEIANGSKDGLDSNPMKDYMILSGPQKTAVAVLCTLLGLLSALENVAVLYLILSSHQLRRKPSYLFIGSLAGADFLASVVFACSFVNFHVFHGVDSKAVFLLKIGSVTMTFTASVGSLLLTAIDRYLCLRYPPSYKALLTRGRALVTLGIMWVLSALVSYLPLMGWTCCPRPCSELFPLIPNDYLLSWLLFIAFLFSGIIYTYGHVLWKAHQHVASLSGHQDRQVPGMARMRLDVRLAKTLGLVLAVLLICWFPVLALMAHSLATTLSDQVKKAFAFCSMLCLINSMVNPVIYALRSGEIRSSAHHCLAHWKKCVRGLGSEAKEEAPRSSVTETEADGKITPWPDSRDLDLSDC
Test: In vitro CEREP profiling, CB2 (h) (agonist radioligand)
Format: binding
Conditions: test compound 10 uM
Source text: as §1

| Structure (SMILES) | perc_inhibition (% inhibition of the binding of a ligand specific for each target) |
| --- | --- |
| C[C@H](C(=O)O)[C@@H](NC(=O)c1ncnc2[nH]ccc12)c1ccc(Br)cc1 [ASAP-0014722] | -5% |

System: not listed separately
Test: Protein binding
Format: in vitro ADME
Conditions: In vitro dog plasma protein binding
Source text: Supplement media-1.zip/Protein_Binding.csv, table | column: fu; perc_bound; perc_free; perc_recovered

| Structure (SMILES) | fu | perc_bound | perc_free | perc_recovered |
| --- | --- | --- | --- | --- |
| C[C@H](C(=O)O)[C@@H](NC(=O)c1ncnc2[nH]ccc12)c1ccc(Br)cc1 [ASAP-0014722] | 0.039 | 96.1% | 3.94% | 103.6% |

Same assay, conditions: In vitro fetal calf serum protein binding

| Structure (SMILES) | fu | perc_bound | perc_free | perc_recovered |
| --- | --- | --- | --- | --- |
| C[C@H](C(=O)O)[C@@H](NC(=O)c1ncnc2[nH]ccc12)c1ccc(Br)cc1 [ASAP-0014722] | 0.043 | 95.7% | 4.3% | 106.3% |

Same assay, conditions: In vitro human plasma protein binding

| Structure (SMILES) | fu | perc_bound | perc_free | perc_recovered |
| --- | --- | --- | --- | --- |
| C[C@H](C(=O)O)[C@@H](NC(=O)c1ncnc2[nH]ccc12)c1ccc(Br)cc1 [ASAP-0014722] | 0.026 | 97.4% | 2.6% | 99.4% |

Same assay, conditions: In vitro mouse plasma protein binding

| Structure (SMILES) | fu | perc_bound | perc_free | perc_recovered |
| --- | --- | --- | --- | --- |
| C[C@H](C(=O)O)[C@@H](NC(=O)c1ncnc2[nH]ccc12)c1ccc(Br)cc1 [ASAP-0014722] | 0.111 | 88.9% | 11.1% | 94.29% |

Same assay, conditions: In vitro rat plasma protein binding

| Structure (SMILES) | fu | perc_bound | perc_free | perc_recovered |
| --- | --- | --- | --- | --- |
| C[C@H](C(=O)O)[C@@H](NC(=O)c1ncnc2[nH]ccc12)c1ccc(Br)cc1 [ASAP-0014722] | 0.044 | 95.6% | 4.41% | 93.34% |

Target: T6, CCK1 (CCKA) (h) (Homo sapiens, UniProt P32238)
T6 construct: purchased Eurofins Cerep (SafetyScreen44), recognised from the panel format
T6 sequence (P32238 1-428): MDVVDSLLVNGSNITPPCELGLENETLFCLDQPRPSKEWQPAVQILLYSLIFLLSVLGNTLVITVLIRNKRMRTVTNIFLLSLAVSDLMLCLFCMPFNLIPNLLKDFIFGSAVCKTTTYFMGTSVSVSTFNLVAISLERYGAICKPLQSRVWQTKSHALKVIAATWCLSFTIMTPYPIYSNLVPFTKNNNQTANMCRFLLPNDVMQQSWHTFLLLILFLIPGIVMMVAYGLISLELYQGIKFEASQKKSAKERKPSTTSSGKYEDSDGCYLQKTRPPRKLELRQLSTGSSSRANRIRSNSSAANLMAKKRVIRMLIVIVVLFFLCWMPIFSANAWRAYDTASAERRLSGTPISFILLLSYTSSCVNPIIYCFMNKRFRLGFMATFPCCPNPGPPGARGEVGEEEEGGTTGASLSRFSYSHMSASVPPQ
Test: In vitro CEREP profiling, CCK1 (CCKA) (h) (agonist radioligand)
Format: binding
Conditions: test compound 10 uM
Source text: as §1

| Structure (SMILES) | perc_inhibition (% inhibition of the binding of a ligand specific for each target) |
| --- | --- |
| C[C@H](C(=O)O)[C@@H](NC(=O)c1ncnc2[nH]ccc12)c1ccc(Br)cc1 [ASAP-0014722] | 6% |

System: BZD (central)
Test: In vitro CEREP profiling, BZD (central) (agonist radioligand)
Format: binding
Conditions: test compound 10 uM
Source text: as §1

| Structure (SMILES) | perc_inhibition (% inhibition of the binding of a ligand specific for each target) |
| --- | --- |
| C[C@H](C(=O)O)[C@@H](NC(=O)c1ncnc2[nH]ccc12)c1ccc(Br)cc1 [ASAP-0014722] | -4% |

Target: T7, MAO-A (Rattus norvegicus, UniProt P21396)
T7 construct: purchased Eurofins Cerep (SafetyScreen44), recognised from the panel format
T7 sequence (P21396 1-526): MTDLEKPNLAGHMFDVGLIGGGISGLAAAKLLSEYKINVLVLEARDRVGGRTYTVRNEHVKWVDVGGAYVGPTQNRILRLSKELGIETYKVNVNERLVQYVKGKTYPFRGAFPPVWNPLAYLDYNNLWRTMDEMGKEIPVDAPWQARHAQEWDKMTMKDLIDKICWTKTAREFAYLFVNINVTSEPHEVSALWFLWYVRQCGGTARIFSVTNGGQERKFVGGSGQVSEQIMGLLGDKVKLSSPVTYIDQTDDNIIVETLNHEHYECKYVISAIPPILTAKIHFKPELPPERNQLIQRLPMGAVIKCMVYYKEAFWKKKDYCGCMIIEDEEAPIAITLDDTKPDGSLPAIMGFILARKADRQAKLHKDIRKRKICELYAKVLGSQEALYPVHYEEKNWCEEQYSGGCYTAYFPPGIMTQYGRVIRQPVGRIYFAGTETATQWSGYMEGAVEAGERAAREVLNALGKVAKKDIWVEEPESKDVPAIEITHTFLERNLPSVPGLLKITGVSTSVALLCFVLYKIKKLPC
Test: In vitro CEREP profiling, MAO-A (antagonist radioligand)
Format: binding
Conditions: test compound concentration 10 uM
Source text: as §1

| Structure (SMILES) | perc_inhibition (% inhibition of the binding of a ligand specific for each target) |
| --- | --- |
| C[C@H](C(=O)O)[C@@H](NC(=O)c1ncnc2[nH]ccc12)c1ccc(Br)cc1 [ASAP-0014722] | -1% |

Target: T8, M3 (h) (Homo sapiens, UniProt P20309)
T8 construct: purchased Eurofins Cerep (SafetyScreen44), recognised from the panel format
T8 sequence (P20309 whole entry): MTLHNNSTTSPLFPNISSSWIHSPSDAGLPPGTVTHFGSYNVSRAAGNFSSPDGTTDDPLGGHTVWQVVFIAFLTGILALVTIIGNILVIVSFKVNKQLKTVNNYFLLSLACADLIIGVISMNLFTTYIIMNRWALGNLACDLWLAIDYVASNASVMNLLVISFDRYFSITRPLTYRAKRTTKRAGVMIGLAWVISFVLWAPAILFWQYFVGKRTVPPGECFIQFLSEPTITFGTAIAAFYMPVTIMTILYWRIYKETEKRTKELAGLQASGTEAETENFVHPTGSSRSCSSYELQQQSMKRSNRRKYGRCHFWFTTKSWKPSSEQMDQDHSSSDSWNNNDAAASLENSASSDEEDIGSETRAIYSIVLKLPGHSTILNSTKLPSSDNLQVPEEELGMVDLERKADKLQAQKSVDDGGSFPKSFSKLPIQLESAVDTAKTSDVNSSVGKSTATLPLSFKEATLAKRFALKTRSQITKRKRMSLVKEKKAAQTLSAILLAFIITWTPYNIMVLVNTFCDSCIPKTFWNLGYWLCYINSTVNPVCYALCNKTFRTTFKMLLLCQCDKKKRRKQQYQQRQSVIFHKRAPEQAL
Test: In vitro CEREP profiling, M3 (h) (antagonist radioligand)
Format: binding
Conditions: test compound concentration 10 uM
Source text: as §1

| Structure (SMILES) | perc_inhibition (% inhibition of the binding of a ligand specific for each target) |
| --- | --- |
| C[C@H](C(=O)O)[C@@H](NC(=O)c1ncnc2[nH]ccc12)c1ccc(Br)cc1 [ASAP-0014722] | -9% |

Target: T9, H2 (h) (Homo sapiens, UniProt P25021)
T9 construct: purchased Eurofins Cerep (SafetyScreen44), recognised from the panel format
T9 sequence (P25021 whole entry): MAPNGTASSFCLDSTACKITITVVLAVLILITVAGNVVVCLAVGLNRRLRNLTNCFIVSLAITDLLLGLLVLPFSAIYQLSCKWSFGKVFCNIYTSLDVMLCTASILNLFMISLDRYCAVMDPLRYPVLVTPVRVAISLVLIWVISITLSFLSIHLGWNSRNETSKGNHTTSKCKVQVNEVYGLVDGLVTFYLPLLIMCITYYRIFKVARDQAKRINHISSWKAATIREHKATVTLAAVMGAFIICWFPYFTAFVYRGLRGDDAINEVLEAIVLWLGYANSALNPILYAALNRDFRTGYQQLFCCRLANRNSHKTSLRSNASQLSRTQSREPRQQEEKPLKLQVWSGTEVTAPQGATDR
Test: In vitro CEREP profiling, H2 (h) (antagonist radioligand)
Format: binding
Conditions: test compound concentration 10 uM
Source text: as §1

| Structure (SMILES) | perc_inhibition (% inhibition of the binding of a ligand specific for each target) |
| --- | --- |
| C[C@H](C(=O)O)[C@@H](NC(=O)c1ncnc2[nH]ccc12)c1ccc(Br)cc1 [ASAP-0014722] | -21% |

From publication doi:10.1101/2024.08.19.608619, “Discovery of potent SARS-CoV-2 nsp3 macrodomain inhibitors uncovers lack of translation to cellular antiviral response” (bioRxiv, 2024)
